In one assay the target is KRas G12C (Homo sapiens (Human), UniProt P01116, G12C). Briefly: Nucleotide exchange assay (NEA)-HTRF, SOS1 catalyzed displacement of GDP by GTP (Test Example 4). Type of assay: biochemical. On the procedure: The effects of compounds on SOS1 catalyzed displacement of GDP by GTP on KRas proteins was examined by homogeneous time-resolved fluorescence (HTRF). 30 μM 6×his labeled KRas G12C recombinant protein and 80 μM fluorochrome DY647 labeled GDP were co-incubated in a labeling buffer (1 mM DTT, 7.5 mM EDTA, 25 mM Tris-HCl, 45 mM NaCl) at 20° C. away from light for 2 hours. Protein quantification was performed after purification on the NAP-5 column to determine the concentration of KRas G12C-GDP.
1000× stock solutions of compounds at a concentration gradient of 3.16 were prepared by using DMSO, and diluted 250 times by a reaction buffer (40 mM N-2-hydroxyethylpiperazine-N-2-ethane sulfonic acid (HEPES), 10 mM MgCl2, 1 mM DTT, 0.002% Triton X-100) into 4× stock solutions of compounds. KRas G12C-GDP/Tb working solution (40 nM KRas G12C-GDP, 1×anti-his Tb) and SOS1/GTP working solution (0.2 μM SOS1, 200 μM GTP) were prepared by using the reaction buffer.
5 μl of 4×stock solution of a compound and 10 μl of KRas G12C-GDP/T working solution were added to each well of 96-well plate with white unclear bottom, and 5 μl of reaction buffer was added to the well of control group in stead of the 4×stock solution of a compound. After incubation at 20° C. away from light for 15 minutes, 5 μl of SOS1/GTP working solution was added and incubated at 20° C. away from light for 2 hours, and then a value of fluorescence intensity was read (excitation wavelength: 320 nm, and emission wavelengths: 615 nm and 665 nm). Besides, group TO was established with 10 μl of the reaction buffer and 10 μl of the KRas G12C-GDP/Tb working solution, and the value of fluorescence intensity was directly read. A relative light unit (RLU) was calculated by the following equation: RLU=(665 nm signal/615 nm signal)×10^4; and the inhibition rate (IR) of the compound was calculated by the following equation: IR (%)=(RLUcompound−RLUcontrol)/(RLUT0−RLUcontrol)×100%. The value of IC50 was calculated by fitting a gradiently diluted concentration of the compound and the corresponding cell proliferation inhibition rate using a four-parameter method.
For orientation: In TR-FRET formats the signal depends on donor and acceptor labels being close together.

The subject of assay [1] is MIA PaCa-2 cells with Kras G12C mutation. Briefly: Cell proliferation inhibition experiment, 3D spheroid, CellTiter-Glo (Test Example 3). Type of assay: cell-based, human. The note with it: 5 days, read-out: MIA-PaCa2 IC50. In outline:
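MIA PaCa-2 spheroids (200 cells/well) were formed overnight, then exposed for 5 days to compounds in 3.16-fold dilutions at 0.1% DMSO. Viability was read by CellTiter-Glo luminescence, and inhibition was normalised to DMSO control and medium blank. IC50 came from a four-parameter fit.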
(In ATP-based viability assays light output follows the ATP content of the culture.)

Assay [2] concerns A549 cells with Kras G12S mutation. Briefly: Cell proliferation inhibition experiment, 3D spheroid, CellTiter-Glo (Test Example 1). Type of assay: cell-based, human. Particulars: 5 days. In outline:
(§1)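 NCI-H358 (800 cells/well) and A549 (400 cells/well) grown overnight as 3D spheroids in 2% FBS medium, then exposed to compound dilution series (3.16-fold, 0.1% DMSO) for 5 days. CellTiter-Glo luminescence read; inhibition relative to DMSO and blank, IC50 by four-parameter fit.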

The test system of assay [3] is NCI-H358 cells with Kras G12C mutation. The assay is described as above. Type of assay: cell-based, human. The note with it: 5 days. The method, boiled down:
as §1

The mark [4] stands for this setting: Homo sapiens, MIA PaCa-2, 120 h.

This passage reports IC50 results from patent publication US12054497B2, “Substituted heterocyclic fused cyclic compound, preparation method therefor and pharmaceutical use thereof” (GENFLEET THERAPEUTICS (SHANGHAI) INC., priority 2019, dated 2024).

Usually IC50 stands for the concentration that gives 50% inhibition.

Each structure is given as a SMILES string. Like-named read-outs stand apart in the source and are kept apart here. Bounds are passed on as bounds.

KRas G12C, sequence (P01116-2 other isoform, or with tags, fused parts or gaps G12C): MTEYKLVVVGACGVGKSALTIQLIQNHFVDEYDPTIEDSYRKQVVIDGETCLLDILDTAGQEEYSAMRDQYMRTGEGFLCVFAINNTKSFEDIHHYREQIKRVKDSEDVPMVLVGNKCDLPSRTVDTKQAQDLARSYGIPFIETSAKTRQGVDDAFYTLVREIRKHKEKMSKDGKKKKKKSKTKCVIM

For the compound `C=CC(=O)N1CCN2c3c(c(=O)n(-c4c(C)ccnc4C(C)C)c4nc(-c5c(O)cccc5F)c(F)cc34)N(C)C(=O)[C@H]2C1` (single isomer, unassigned) [Compound Z9-2], the IC50 on KRas G12C was 115 nM; in assay [1] (setting [4]), 17 nM; in assay [2], > 10000 nM; in assay [3], 15 nM.
Consider `C=CC(=O)N1C[C@@H]2C(=O)N(C)c3c(c4cc(F)c(-c5c(O)cccc5F)nc4n(-c4c(C)ccnc4C(C)C)c3=O)N2C[C@H]1C` (single isomer, unassigned) [Compound Z10-2], for which the IC50 on KRas G12C is 37 nM; in assay [1] (setting [4]) it was 8 nM; in assay [2] it was 24600 nM; in assay [3], 4 nM.
With `C=CC(=O)N1CCN2c3c(c(=O)n(-c4c(C)ccnc4C(C)C)c4nc(-c5c(O)cccc5F)c(Cl)cc34)N(C)C(=O)[C@H]2C1` (single isomer, unassigned) [Compound Z25-2], the IC50 was 25 nM on KRas G12C; 5 nM in assay [1] (Homo sapiens, 120 h); > 30000 nM in assay [2]; 3 nM in assay [3].
Take `[2H]C([2H])([2H])N1C(=O)[C@H]2CN(C(=O)C=C)CCN2c2c1c(=O)n(-c1c(C)ccnc1C(C)C)c1nc(-c3c(O)cccc3F)c(Cl)cc21` (single isomer, unassigned) [Compound Z26-2]: the IC50 was 40 nM at KRas G12C, 5 nM in assay [1], > 30000 nM in assay [2] and 3 nM in assay [3].
`C=CC(=O)N1C[C@@H]2C(=O)N(C)c3c(c4cc(Cl)c(-c5c(O)cccc5F)nc4n(-c4c(C)ccnc4C(C)C)c3=O)N2C[C@H]1C` (single isomer, unassigned) [Compound Z27-2]: the IC50 turned out to be 9 nM on KRas G12C, 1 nM in assay [1] (setting [4]), 19000 nM in assay [2] and 1 nM in assay [3].
Regarding `C=CC(=O)N1CCN2c3c(c(=O)n(-c4c(C(C)C)ncnc4C(C)C)c4c(F)c(-c5c(O)cccc5F)c(Cl)cc34)NC(=O)[C@H]2C1` (single isomer, unassigned) [Compound Z37-1], the IC50 at KRas G12C is 11 nM; in assay [1] (setting [4]), 2 nM; in assay [2], > 30000 nM; in assay [3], 0.7 nM.
In the case of `C=CC(=O)N1CCN2c3c(c(=O)n(-c4c(C)ccnc4C(C)C)c4nc(-c5c(O)cccc5F)c(F)cc34)OC[C@H]2C1` [Compound Z1, (4aR)-3-acryloyl-11-fluoro-10-(2-fluoro-6-hydroxyphenyl)-8-(2-isopropyl-4-methylpyridin-3-yl)-1,2,3,4,4a,5-hexahydropyrazino[1′,2′:4,5][1,4]oxazino[2,3-c][1,8]naphthyridin-7(8H)-one], the IC50 at KRas G12C was 255 nM; in assay [1] (setting [4]) it was 90 nM; in assay [2] (Homo sapiens, A549, 120 h) it was > 10000 nM; in assay [3] (Homo sapiens, NCI-H358, 120 h), 31 nM.
With `C=CC(=O)N1CCN2c3c(c(=O)n(-c4c(C(C)C)ncnc4C(C)C)c4nc(-c5c(O)cccc5F)c(Cl)cc34)N(C)C(=O)[C@H]2C1` [Compound Z48], the concentration for half-maximal inhibition (IC50) in assay [1] (setting [4]) was 6 nM; in assay [2] (Homo sapiens, A549, 120 h) it was > 10000 nM; in assay [3] (Homo sapiens, NCI-H358, 120 h), 3 nM.
